In US11274115B2, “Imidazoquinoline derivatives and their use in therapy” (GLAXOSMITHKLINE BIOLOGICALS SA, priority 2016, dated 2022):
Where two headings read alike, the source gives them in different places.

What was measured:
Assay type in all cases: cell-based
human TLR7 = target: T1, human TLR7 (Homo sapiens, UniProt Q9NYK1); test: hTLR7 agonist reporter assay in HEK293 cells (NFκB-SEAP); conditions: for EC50: read-out: hTLR7 ED50; for hTLR7/8 ratio: hTLR7 ED50 over hTLR8 ED50
T1 construct: host or cells: HEK293
T1 sequence (Q9NYK1 27-1049): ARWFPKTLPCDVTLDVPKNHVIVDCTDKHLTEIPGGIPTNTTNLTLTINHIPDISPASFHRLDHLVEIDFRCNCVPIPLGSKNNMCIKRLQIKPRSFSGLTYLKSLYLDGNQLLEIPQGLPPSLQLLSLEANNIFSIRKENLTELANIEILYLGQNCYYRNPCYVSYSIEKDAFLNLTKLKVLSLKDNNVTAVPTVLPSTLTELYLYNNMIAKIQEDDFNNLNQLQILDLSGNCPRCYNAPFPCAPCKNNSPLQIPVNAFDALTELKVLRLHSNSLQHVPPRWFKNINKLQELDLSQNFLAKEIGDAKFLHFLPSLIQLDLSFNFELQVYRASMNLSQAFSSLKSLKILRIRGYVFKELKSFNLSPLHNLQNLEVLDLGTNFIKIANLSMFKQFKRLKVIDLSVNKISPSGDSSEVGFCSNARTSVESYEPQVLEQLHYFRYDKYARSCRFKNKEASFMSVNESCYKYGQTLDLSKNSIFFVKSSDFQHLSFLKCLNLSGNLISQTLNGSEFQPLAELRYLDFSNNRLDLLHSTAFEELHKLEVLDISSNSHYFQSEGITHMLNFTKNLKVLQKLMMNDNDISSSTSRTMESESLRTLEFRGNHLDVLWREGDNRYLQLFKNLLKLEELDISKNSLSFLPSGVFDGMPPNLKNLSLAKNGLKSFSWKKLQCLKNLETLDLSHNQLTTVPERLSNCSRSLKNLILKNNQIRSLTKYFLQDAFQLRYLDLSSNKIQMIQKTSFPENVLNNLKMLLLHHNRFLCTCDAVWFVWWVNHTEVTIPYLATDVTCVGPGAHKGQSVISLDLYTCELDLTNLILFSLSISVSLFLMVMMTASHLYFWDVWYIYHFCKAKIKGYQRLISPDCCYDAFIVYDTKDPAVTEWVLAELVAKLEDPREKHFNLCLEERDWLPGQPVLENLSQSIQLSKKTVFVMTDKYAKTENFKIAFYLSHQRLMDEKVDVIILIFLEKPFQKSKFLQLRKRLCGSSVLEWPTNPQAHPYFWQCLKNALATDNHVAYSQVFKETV
Protocol: Assay for hTLR7 and hTLR8 Agonist Activity in HEK-293 Cells
Determination of TLR agonist activity was performed using the HEK293 […]. This assay measures TLR7 and TLR8 selectivity and potency of the compounds tested. HEK293 cells expressing human TLR7 or TLR8 and NFκB responsive Secreted Embryonic Alkaline Phosphatase (SEAP) reporter gene were obtained from InvivoGen (San Diego, Calif.). These cells were maintained in culture media of Dulbecco's Modified Eagle Medium (DMEM) (Invitrogen, Grand Island, N.Y.), 10% Fetal Bovine Serum (FBS) (Sigma, St. Louis, Mo.) and selection antibiotics (Invitrogen, and Invivogen). HEK293 stably transfected with human TLR7 (hTLR7) or human TLR8 (hTLR8) were stimulated for 24 h with aqueous formulations of test compounds and culture supernatants were analyzed for NFκB activation using the colorimetric SEAP detection kit QuantBlue (InvivoGen).

[1] = test system: human peripheral blood mononuclear cells (hPBMCs); test: IFN-γ induction in hPBMCs; conditions: 24 h
Protocol: (§1) Assays to Measure Cytokine Induction
(§2) Test compounds were evaluated for cytokine induction in human peripheral blood mononuclear cells (hPBMCs).
(§3) Primary human PBMCs were isolated from fresh blood from healthy donors via Ficoll gradient separation and plated at 0.5×10^6 cells/well in 96-well tissue culture plates (RPMI-1640 plus 10% FBS). hPBMCs were maintained with RPMI-1640 culture media (Invitrogen, Grand Island, N.Y.), antibiotics (Invitrogen) and 10% FBS (Sigma).
(§4) Incubation and Assays for IFN-γ, IFN-α and TNF-α
(§5) hPBMCs were stimulated for 24 h with aqueous formulations of test compounds. Culture supernatants were analyzed for TNF-α and IFN-γ induction using multiplex kits (FluoroKine multiplex kits from R&D Systems, Minneapolis, Minn.) and for IFN-α induction using human IFN-α VeriKine ELISA kit (Pestka Biomedical Laboratories, Inc., Piscataway, N.J.).

[2] = test system: human peripheral blood mononuclear cells (hPBMCs); test: IFN-α induction in hPBMCs; conditions: 24 h
Protocol: as §1, §2, §3, §4, §5

[3] = test system: human peripheral blood mononuclear cells (hPBMCs); test: TNF-α induction in hPBMCs; conditions: 24 h
Protocol: as §1, §2, §3, §4, §5

CCCCCCCC/C=C\CCCCCCCC(=O)OC[C@H](COP(=O)(O)OCCOc1ccc2c(c1)nc(N)c1nc(CCCC)n(CCO)c12)OC(=O)CCCCCCC/C=C\CCCCCCCC [Example 1]
selectivity hTLR8/hTLR7, in words (human TLR7; Table 1): notable selectivity for hTLR8/hTLR7
EC50 (human TLR7; Table 1, FIG. 1, 24 h stimulation, aqueous formulations): 1.06 µM
hTLR7/8 ratio (human TLR7; Table 1): 11.0
EC50 (human TLR7; Table 2, FIG. 3, another occasion, * = only very low levels of NFKB activation were detected): 7 µM
hTLR7/8 ratio (human TLR7; Table 2): 8.9
hTLR7 agonist activity, in words (human TLR7; Table 3, FIG. 5): agonist of both TLR7 and TLR8
EC50 (human TLR7; Table 3, FIG. 5, another occasion, * = only very low levels of NFKB activation were detected): 4.1 µM
hTLR7/8 ratio (human TLR7; Table 3): 6.9
EC50 (human TLR7; Table 4, FIG. 7, another occasion): 7 µM
hTLR7/8 ratio (human TLR7; Table 4): 9.9
hTLR7 agonist activity, in words (human TLR7; text on Table 1, FIG. 1): significantly more potent as an agonist of hTLR7 and hTLR8 than Comparative Example 2
hTLR7 agonist activity, in words (human TLR7; text on Table 2, FIG. 3): more active than Comparative Example 2 as an agonist of hTLR7 and hTLR8
IFN-γ induction, in words ([1]; FIG. 9): more potent than Comparative Example 3 but less potent than Comparative Example 1
IFN-γ induction, in words ([1]; FIG. 11, another occasion): potent at inducing IFN-γ and each was more potent than Comparative Example 3
IFN-α induction, in words ([2]; FIG. 10): equipotent at inducing IFN-α and these were more potent than Comparative Example 1 and Comparative Example 2 in this assay at a lower dose
IFN-α induction, in words ([2]; FIG. 12, another occasion): more potent at inducing IFN-α than Comparative Examples 1, 2 and 3
IFN-α induction, in words ([2]; FIG. 14, another occasion): very effective at inducing IFN-α
IFN-α induction, in words ([2]; FIG. 16, another occasion): good activity in inducing IFN-α
TNF-α induction, in words ([3]; FIG. 13): potent at inducing TNF-α
TNF-α induction, in words ([3]; FIG. 15, another occasion): effective at inducing TNF-α
